Activity calls are given as the source filed them. The calls are words filed in the database; no cut-off is given here.
Key:
[1] = molecular target: Botulinum neurotoxin type A (Clostridium botulinum, UniProt P0DPI0); test: Inhibition of Clostridium botulinum BoNT/A light chain assessed as inhibition of SNAP-25 (187-203) substrate hydrolysis by RP-HPLC-based assay in presence of excess Zn(II)
[2] = molecular target: Botulinum neurotoxin type A (Clostridium botulinum) (UniProt P0DPI0); test: Competitive inhibition of Clostridium botulinum BoNT/A light chain assessed as inhibition of SNAP-25 (187-203) substrate hydrolysis by Dixon plot analysis
Sequence of Botulinum neurotoxin type A (Clostridium botulinum) (P0DPI0 2-448 limits assumed): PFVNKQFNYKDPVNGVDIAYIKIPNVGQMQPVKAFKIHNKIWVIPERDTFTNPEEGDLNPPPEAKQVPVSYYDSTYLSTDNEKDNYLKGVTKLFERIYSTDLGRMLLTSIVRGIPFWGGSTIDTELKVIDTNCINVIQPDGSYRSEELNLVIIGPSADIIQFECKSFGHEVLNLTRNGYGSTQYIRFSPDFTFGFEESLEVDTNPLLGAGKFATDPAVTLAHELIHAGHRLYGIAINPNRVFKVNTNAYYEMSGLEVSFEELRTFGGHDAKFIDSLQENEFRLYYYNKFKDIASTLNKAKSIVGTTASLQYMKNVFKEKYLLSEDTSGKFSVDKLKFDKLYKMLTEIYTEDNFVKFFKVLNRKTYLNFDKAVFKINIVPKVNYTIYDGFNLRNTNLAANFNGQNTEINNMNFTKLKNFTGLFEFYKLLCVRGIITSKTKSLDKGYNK

Sequence of Botulinum neurotoxin type A (P0DPI0 2-448 limits assumed): as above

SMILES	Ki [1]	inhibition [2]
O=C(NCCCNc1ccnc2cc(Cl)ccc12)c1cc(NC(=O)c2ccc(C(=O)Nc3cc(C(=O)NCCCNc4ccnc5cc(Cl)ccc45)cc(C4=NCCN4)c3)cc2)cc(C2=NCCN2)c1	572 nM	Active
O=C(NCCNc1ccnc2cc(Cl)ccc12)c1cc(NC(=O)c2ccc(C(=O)Nc3cc(C(=O)NCCNc4ccnc5cc(Cl)ccc45)cc(C4=NCCN4)c3)cc2)cc(C2=NCCN2)c1	2120 nM	Active
CCCCNC(=O)c1cc(NC(=O)c2ccc(C(=O)Nc3cc(C(=O)NCCCC)cc(C4=NCCN4)c3)cc2)cc(C2=NCCN2)c1	8520 nM	–
O=C(NCCCCNc1ccnc2cc(Cl)ccc12)c1cc(NC(=O)c2ccc(C(=O)Nc3cc(C(=O)NCCCCNc4ccnc5cc(Cl)ccc45)cc(C4=NCCN4)c3)cc2)cc(C2=NCCN2)c1	900 nM	Active

Source: ChEMBL document CHEMBL2034839, “Pharmacophore Refinement Guides the Rational Design of Nanomolar-Range Inhibitors of the Botulinum Neurotoxin Serotype A Metalloprotease” (ACS Med Chem Lett, 2010)
